Reference: ChEMBL document CHEMBL3507680, “University of Dundee, Gates Library screen for HepG2 cell viability”

Assay: Human HepG2 cell viability assay in 384 well format
Format: toxicity, cell-based
Design: dose 125 nL, time 70.5 hour; concentration not given beside the values
Details: HepG2 cells, read-out: Inhibition

Structure (SMILES) | cytotoxicity at 70.5 h
Cc1ccc(C(=O)NCc2ccnc(N(C)C)c2)c(C)c1 | 1.03%
O=C(NCCCN1CCCCCC1=O)c1n[nH]c(=O)c2ccccc12 | -2.46%
O=C(NCCN1CCCCCC1)c1n[nH]c(=O)c2ccccc12 | 1.79%
O=C(Nc1cccnc1N1CCCC1)C1CCS(=O)(=O)C1 (configuration not stated) | 1.04%
CC(C)c1noc(CCC(=O)NC2CCS(=O)(=O)C2)n1 (configuration not stated) | 0.473%
CC(C)(C)c1noc(CCC(=O)NCC2CCS(=O)(=O)C2)n1 (configuration not stated) | 1.1%
O=C(NCc1cc[nH]n1)NCC(O)c1ccccc1F (configuration not stated) | 0.0915%
O=C(NCc1cc[nH]n1)NCC(O)c1ccc(F)cc1 (configuration not stated) | 6.85%
CN(C)c1cc(CNC(=O)c2ccc(Br)cc2F)ccn1 | -4.97%
COc1ncccc1NC(=O)C1CCOCC1 | 22.9%
Cn1cnc2c1CCN(CCOc1ccc(C#N)cc1)C2 | 1.67%
CC(C)c1nc2c(n1C)CCN(CCCOc1ccc(C#N)cc1)C2 | 2.99%
CN(C)c1ccc(C(=O)N2CCN(CC(C)(C)O)CC2)nn1 | -2.1%
CN(C)c1ncccc1CNc1cc(N2CCCC2CO)ncn1 (configuration not stated) | 10.5%
CC(C)c1noc(CCC(=O)NCC2CCC(C(N)=O)CC2)n1 (configuration not stated) | 1.53%
Cc1nnc(NC(=O)CN2CCc3c(nc(C4CC4)n3C)C2)s1 | 6.62%
CC(Cn1ccnc1)NC(=O)N(C)Cc1ccc2c(c1)OCO2 (configuration not stated) | 1.49%
CCc1nc(CN(C)C2CCN(CCC(=O)N3CCCCC3)C2)no1 (configuration not stated) | 0.593%
CCc1[nH]ncc1C(=O)N1CCCC(n2cncn2)C1 (configuration not stated) | 1.79%
CN(CCC(=O)N1CCc2sccc2C1)Cc1ccc2c(c1)OCCO2 | -2.14%
Cc1cnn(CC2CN(Cc3noc(C4CC4)n3)CCO2)c1 (configuration not stated) | -13.6%
c1cnn(CC2CN(Cc3nc(C4CC4)no3)CCO2)c1 (configuration not stated) | 19.7%
CCn1c(CNCC2CCCN2c2cccnn2)nc2ccccc21 (configuration not stated) | -9.03%
CCc1nc(CN(C)C2CCN(CC(F)(F)F)C2)no1 (configuration not stated) | -4.19%

Structure (SMILES) | cytotoxicity at 70.5 h
Cc1cccnc1CNC(=O)N(CCCO)C1CCc2ccccc21 (configuration not stated) | -12.3%
CC(C)Cc1nc(CN2CCOC(Cn3cccn3)C2)no1 (configuration not stated) | 15.4%
CCc1nc(C2CCCN2Cc2nccn2CC(F)(F)F)no1 (configuration not stated) | 1.64%
Cc1cccc(CNC(=O)N(CCCO)C2CCc3ccccc32)n1 (configuration not stated) | -1.88%
Cc1nc(C)n(CC2CN(Cc3noc(C4CC4)n3)CCO2)n1 (configuration not stated) | -6.68%
Cc1ncc2c(n1)CCN(CCCc1nc3ccccc3o1)C2 | -2.27%
COc1ccc(F)cc1C(C)NC(=O)NCCCn1cncn1 (configuration not stated) | -2.2%
CCS(=O)(=O)c1ccccc1C(=O)N1CCCC(n2cccn2)C1 (configuration not stated) | 18.2%
CC(C)c1nc(CN2CCOC(Cn3cccn3)C2)no1 (configuration not stated) | 1.63%
CC(C)(C)c1nc(CN2CCOC(Cn3cccn3)C2)no1 (configuration not stated) | 0.39%
CC(C)c1nnc2n1CCN(C(=O)c1cccc(S(C)(=O)=O)c1)C2 | 17%
CCc1nnc2n1CCN(C(=O)c1ccnc(N(C)C)c1)C2 | -2.04%
Cc1ccc(NC2CCN(C(=O)c3cccc4cccnc34)CC2)nn1 | -6.15%
Cc1nc(C2CCCN(C(=O)c3c(C)nn4cccnc34)C2)no1 (configuration not stated) | -4.04%
CC(C)c1nc(CN2CCCN(Cc3nccn3C)CC2)no1 | 18.1%
Cc1nc(CN2CCCC(N(C)Cc3nccn3C)C2)no1 (configuration not stated) | 21.6%
Cc1cnc(CN(C)C2CCN(CCCc3ccccc3)C2)o1 (configuration not stated) | 10%
Cc1cc(CN2CCCC(c3cc(C(F)(F)F)[nH]n3)C2)no1 (configuration not stated) | -15.8%
N#Cc1ccc(OCCN2CCn3c(nnc3C3CC3)C2)cc1 | 6.25%
COc1ccc(C)cc1CN(C)CC(=O)NC1(C)CCS(=O)(=O)C1 (configuration not stated) | -15.5%
O=C(NCCNC(=O)c1scnc1Cl)c1cccs1 | -14.2%
O=C(NCCNC(=O)c1scnc1Cl)c1ccccc1Cl | -8.93%
Cc1cnc(C(=O)N2CCCN(c3nc(C)cs3)CC2)cn1 | -7.69%
NC(=O)CN1CCCN(C(=O)Cc2ccc3c(c2)OCCO3)CC1 | -11%

Structure (SMILES) | cytotoxicity at 70.5 h
CCc1nnc2n1CCN(Cc1nnc(-c3occc3C)o1)C2 | -4.81%
Cc1nc(C)n(CC2CCCN2Cc2cn3cc(Cl)ccc3n2)n1 (configuration not stated) | -1.76%
CCc1ccc(C(=O)N2CCC(Nc3ccc(C)nn3)CC2)o1 | -4.81%
COc1ccc(S(=O)(=O)N2CCc3ccc(F)cc32)cc1C(=O)O | 1.61%
Cc1nc(CN2CCCC(c3cc(C(F)(F)F)[nH]n3)C2)cs1 (configuration not stated) | -3.08%
Cc1csc(N2CCCN(C(=O)c3c(C)noc3C)CC2)n1 | -8.3%
Cc1csc(N2CCN(C(=O)c3c(C)oc(C)c3C)CC2)n1 | -1.28%
Cc1cc(C)n(CC2CCCN2C(=O)c2ccc3nncn3c2)n1 (configuration not stated) | -4.03%
CC1CN(C)CCN1Cc1cccc(C(=O)N(C)C)c1 (configuration not stated) | 33.2%
Cn1cc(CC(=O)N2CCCC(n3cncn3)C2)cn1 (configuration not stated) | -3.54%
CCC1CN(C(=O)NCc2cccnc2-n2cccn2)CCO1 (configuration not stated) | -5.61%
O=C(c1cnn(-c2ccccc2)n1)N1CCCC(n2cccn2)C1 (configuration not stated) | -10.8%
CCOCCN1CCN(Cc2cccc(C(=O)N(C)C)c2)CC1CC (configuration not stated) | -6.73%
COCc1nc(C(=O)NS(=O)(=O)c2ccc(C)s2)cs1 | -4.27%
COCc1nc(C(=O)NS(=O)(=O)c2ccc(C)cc2C)cs1 | -11.1%
CS(=O)(=O)c1ccc(NC(=O)NCc2ccc3c(c2)CCC3)cn1 | -2.56%
Cc1ccc(OCC(=O)NS(=O)(=O)c2c(C)noc2C)cc1C | 25%
CC(C)c1nn(C)c(N2CCOCC2)c1CNCCS(C)(=O)=O | 3.3%
CN(Cc1ccccc1)CC(O)Cn1cnc2ccsc2c1=O (configuration not stated) | -8.61%
O=C(CCCOc1ccccc1Cl)N1CCCC(n2cncn2)C1 (configuration not stated) | 11%
Cc1ncsc1C(=O)N(Cc1cccnc1)C1CC1 | 3.01%
c1ccc(OCc2ccncc2)c(CNC2CCc3ncnn3C2)c1 (configuration not stated) | 17.2%
CC(C)n1ccnc1CN1CCCN(C(=O)c2cc(Cl)c[nH]2)CC1 | -3.72%
CCc1nc(C2CCCN2CCCS(=O)(=O)c2ccccc2)no1 (configuration not stated) | -7.66%

Structure (SMILES) | cytotoxicity at 70.5 h
CC(C)c1nc(C2CCCN2Cc2ccn(C)c(=O)c2)no1 (configuration not stated) | -0.609%
CCC1c2ccsc2CCN1C(=O)NCc1ccccn1 (configuration not stated) | -6.47%
Cc1noc(C2CCN(C(=O)CCNS(C)(=O)=O)CC2)n1 | -17.2%
Cc1c[nH]cc1C(=O)N1CCN(CCc2cccs2)CC1 | -5.85%
Cn1cc(NC(=O)N2CCC(c3ccccc3)CC2)ccc1=O | -3.71%
CN1CCN(C(=O)c2cccc(OCc3cscn3)c2)CC1 | 4.86%
Cn1cc(NC(=O)N2CCC(CN3CCCC3)CC2)ccc1=O | -0.384%
Cc1ccc(C(=O)N2CCN(CCC(C)(C)C)CC2)c(=O)[nH]1 | -6.54%
CC(C)(O)CN1CCN(C(=O)c2cccnc2O)CC1 | -2.58%
NC(=O)c1cc(C2CCCN(CCOCC(F)(F)F)C2)n[nH]1 (configuration not stated) | 34.2%
Cn1cc(NC(=O)N2CCC(NS(C)(=O)=O)CC2)ccc1=O | 2.55%
NC(=O)c1cc(C2CCCN(CCCOc3ccccc3)C2)n[nH]1 (configuration not stated) | -10.9%
NC(=O)c1cc(C2CCCN(CCc3ccccn3)C2)n[nH]1 (configuration not stated) | -10.6%
CN(Cc1noc(C2CC2)n1)C1CCN(Cc2ccncc2)C1 (configuration not stated) | -9.86%
CC(C)N1CC(C(=O)NCc2ccnc(-n3cccn3)c2)CC1=O (configuration not stated) | -26.8%
CS(=O)(=O)NCC1CCCN(C(=O)COCC(F)(F)F)C1 (configuration not stated) | -21%
CC(C)N1CCN(C(=O)Nc2cnn(CC(N)=O)c2)CC1 | 18.2%
Cc1cnn(CC2CCCCN2Cc2cc(C)on2)c1 (configuration not stated) | -18.5%
c1cnn(CC2CCCCN2Cc2cn3ccsc3n2)c1 (configuration not stated) | -13.5%
COc1cc(C)nc(N2CCN(C(=O)CNC(C)(C)C)CC2)n1 | -15.6%
O=C1C(NCc2nnc3n2CCCC3)CCN1c1ccccc1 (configuration not stated) | -5.59%
CC(C)(C)c1n[nH]c(C2CN(C(=O)c3ccsc3)CCO2)n1 (configuration not stated) | -16.5%
CC(C)(C)c1n[nH]c(C2CN(C(=O)CCc3cscn3)CCO2)n1 (configuration not stated) | -21.1%
CCn1nc2c(cc1=O)CN(Cc1nc(CCOC)no1)CC2 | -16%

Structure (SMILES) | cytotoxicity at 70.5 h
CCOc1cc(CNC(=O)N2CCC(Cc3cnn(C)c3)C2)ccn1 (configuration not stated) | -10.6%
Cc1cc(C)n(CC2CCCN2CCc2ccncc2)n1 (configuration not stated) | 17.9%
Cc1cnn(CC2CCCN2C(=O)c2ccc(OC(C)C)nc2)c1 (configuration not stated) | -15%
O=C1C(NCc2nnc3n2CCCC3)CCN1CC(F)(F)F (configuration not stated) | 20.6%
Cc1nccn1C1CCCN(C(=O)COCC(F)(F)F)C1 (configuration not stated) | -7.9%
COc1cccc(CCNCc2c(C)nn(C)c2N(C)C)c1 | -4.91%
COc1cc(CNCc2c(C(C)C)nn(C)c2N(C)C)ccn1 | -5.93%
Cc1cc(C)n(CC2CN(Cc3cscn3)CCO2)n1 (configuration not stated) | -4.76%
CC(C)c1nn(C)c(N(C)C)c1CNCc1ccccc1CN(C)C | -0.417%
COCc1cccc(CNC(=O)CN2CCCC2c2noc(C)n2)c1 (configuration not stated) | -13.1%
Cc1noc2ncc(C(=O)N(CC3CCOC3)C3CC3)cc12 (configuration not stated) | -6.78%
Cc1cc(C)c(CNC(=O)NCC2CCCN2C)c(=O)[nH]1 (configuration not stated) | 19%
Cc1cc(C)c(CNC(=O)N(C)CC2CCCCO2)c(=O)[nH]1 (configuration not stated) | -3.49%
Cc1cc(C)c(CNC(=O)N2CCN(c3ncccn3)CC2)c(=O)[nH]1 | 0.0542%
Cc1cc(C)c(CNC(=O)NCC2CCCO2)c(=O)[nH]1 (configuration not stated) | 26.7%
Cc1cnn(CC2CN(CC(=O)Nc3nnc(C)s3)CCO2)c1 (configuration not stated) | -9.05%
Cc1ccc(NC2CCN(C(=O)c3cc[nH]n3)CC2)nn1 | -11%
CC(C)c1ccc(C(O)Cn2c(=O)c(C#N)cn(C3CC3)c2=O)cc1 (configuration not stated) | -3.45%
c1ncn(CC2CCCCN2Cc2noc(C3CC3)n2)n1 (configuration not stated) | 11.3%
Cc1ccc(C(=O)Nc2cn[nH]c2)cc1C | -1.12%
Cc1nc(C)c(CC(=O)Nc2nnc(C)s2)c(=O)[nH]1 | 0.383%
